Laboratory results: patent publication US20180251824A1, “IN VITRO GENOTOXICITY ASSAY USING A TRANSCRIPTOMIC BIOMARKER WITH DIRECT DIGITAL COUNTING” (GEORGETOWN UNIVERSITY, priority 2017, published 2018)
“Also recorded” adds a separate entry of the source. One block for each molecule: values may come before it.

Tests used:
[1] = tested on: TGx-DDI biomarker genes in TK6 cells; assay: TGx-DDI transcriptomic biomarker classification by microarray; assay type: cell-based, human; settings: for TGx-DDI classification, overall call (DDI if positive in any of 2DC, PCA, PA): TK6 cells, 4 h, single selected concentration; for TGx-DDI classification by 2DC and/or PCA: DDI branch in 2DC or negative PC1 = DDI; for TGx-DDI prediction by probability analysis (PA): DDI call based on p>0.9
Text: Microarray procedures: RNA samples from the concentration-setting experiments of each compound at their selected concentrations were pooled together and analyzed using human whole genome expression long-nucleotide probe microarrays (60 nucleotide long, Agilent Technologies) microarray (Li et al., 2015). […] Each experiment was run on two arrays, and on each array both treated and reference (vehicle control) samples were hybridized in a dye-swap design. Specifically, the reference and treatment samples were labeled with two different fluorescence dyes, Cy3 and Cy5, and then both samples were hybridized onto one array. To reduce the effects associated with different labeling efficiencies, a two-color dye-swapping configuration was used. The results from these two arrays were combined for statistical analysis.
TGx-DDI transcriptomic biomarker evaluation: Following the dose determination, microarray analysis was performed for each test compound. RNAs from three replicates in the concentration-setting experiment were pooled together and used for microarray analysis. Cisplatin and ionizing radiation were used in parallel during each experiment as positive controls and to assess batch variation. The TGx-DDI transcriptomic biomarker panel was used to classify each chemical as DDI or non-DDI using two-dimensional clustering (2DC), principal component analysis (PCA), and probability analysis (PA). Hierarchical clustering and PCA were used as an initial unsupervised method to explore the data.
The TGx-DDI heatmap for chemicals in all five classes. PA, PCA, and 2DC results using the TGx-DDI biomarker for validation chemicals were generated. In order to decrease the probability of false negatives, a three-pronged approach was used. A chemical was classified as DDI if it gave a positive call in any one of the TGx-DDI biomarker analyses described in the paragraph above (2DC, PCA or PA prediction).

[2] = tested on: ATF3, CDKN1A and GADD45A expression in TK6 cells; assay: qRT-PCR indicator stress gene panel, dose optimization; assay type: cell-based, human; settings: for transcriptional response of the indicator genes at a later time point: later than the 4 h time point
Method: Dose optimization: For some assays, a sufficient concentration of the test agent is required to trigger a measureable transcriptional response; such concentrations may differ from other toxicological endpoints. Therefore, to determine an appropriate concentration for transcriptomics profiling, a dose-range finder experiment was performed for all test compounds as described in Li et al. (2015). Six concentrations of each agent were used for assessment of mRNA changes in three indicator genes (ATF 3, CDKNIA, and GADD45A) by qRT-PCR. The concentration for each agent showing the strongest induction of the indicator genes was then selected. In addition, concordance of responses in the indicator genes was confirmed prior to pooling samples for microarray analysis. If none of the indicator genes were induced in concentration-setting experiments, the IC50 was selected for the microarray analysis. The IC50 value was determined using a standard MTT assay at 24 hr using 10 concentrations and 3 replicates. Based on this cytotoxicity assay, the selected concentrations for microarray analysis were not overtly cytotoxic for any test agent (FIG. 2). If there was neither cytotoxicity nor induction of expression changes in the gene panel, a concentration of 1 mM was used for microarray analysis, as per the revised ICHS2(R1) guidance on genotoxicity testing of pharmaceuticals (ICHS2(R1) (2012) Guidance for Industry: S2(R1) Genotoxicity testing and data interpretation for pharmaceuticals intended for human use. US Department of Health and Human Services, Food and Drug Administration http://www.ich.org/fileadmin/Public_Web_Site/ICH_Products/Guidelines/Safety/S2_R1/Step4/S2R1_Step4.pdf). Selection of a single concentration and pooling replicate samples for microarray analysis (described below) is specific to biomarker development and validation, where multiple compounds were used in each class; future application in substance testing should be undertaken using a dose-response design with samples in triplicate (Buick et al., 2017).

[3] = tested on: TGx-DDI biomarker genes in TK6 cells; assay: TGx-DDI nCounter assay (direct digital counting); settings: 100 ng total RNA, same samples as microarray; 2DC, PCA, PA
Method: Briefly, exponentially growing cells were treated with the indicated chemical agent for 4 h over a broad dose range, cells were harvested, and total RNA was isolated. […] For cell viability assays, at the end of 4 hr treatment, medium was removed from cells, and cells were washed and recovered in fresh medium for 20 hr. Cell viability was measured at the end of recovery period using an MTT Assay kit (Cayman Chemical, Ann Arbor, Mich.).
TGx-DDI nCounter Assay: The nCounter™ assay was performed on 100 ng of RNA that had previously been pooled and used in microarray analysis. […] In brief, optimized sequences for genes in the TGx-DDI panel were custom-designed and manufactured by NanoString. The CodeSet includes the TGx-DDI gene-set and eight housekeeping genes. Housekeeping genes were selected based on stability and detectable expression levels, including G6PD, GUSB, HPRT1, LDHA, NONO, PGK1, PPIH, and TFRC.
To validate the sensitivity and specificity of DDI prediction by TGx-DDI nCounter assay, 38 out of 45 testing compounds, including Class 1, 2, 4 and 5, were evaluated using nCounter technology. nCounter assays were performed on 100 ng of total RNA, the same RNA samples that were used in microarray analysis. Following the categorization guideline described already for microarrays, compounds were classified as DDI or non-DDI based on nCounter assay data.

TK6 cells = assay: MTT cell viability assay; assay type: cell-based, human; settings: selected concentration, 4 hr treatment plus 20 hr recovery
Method: Dose optimization: For some assays, a sufficient concentration of the test agent is required to trigger a measureable transcriptional response; such concentrations may differ from other toxicological endpoints. Therefore, to determine an appropriate concentration for transcriptomics profiling, a dose-range finder experiment was performed for all test compounds as described in Li et al. (2015). Six concentrations of each agent were used for assessment of mRNA changes in three indicator genes (ATF 3, CDKNIA, and GADD45A) by qRT-PCR. The concentration for each agent showing the strongest induction of the indicator genes was then selected. In addition, concordance of responses in the indicator genes was confirmed prior to pooling samples for microarray analysis. If none of the indicator genes were induced in concentration-setting experiments, the IC50 was selected for the microarray analysis. The IC50 value was determined using a standard MTT assay at 24 hr using 10 concentrations and 3 replicates. Based on this cytotoxicity assay, the selected concentrations for microarray analysis were not overtly cytotoxic for any test agent (FIG. 2). Based on this cytotoxicity assay, the selected doses for microarray analysis were not overtly cytotoxic. […]

- TGx-DDI classification, overall call (DDI if positive in any of 2DC, PCA, PA) [1]: non-DDI
Molecule: CCn1cc(C(=O)O)c(=O)c2cc(F)c(N3CCNCC3)cc21 [norfloxacin]

- TGx-DDI classification, overall call (DDI if positive in any of 2DC, PCA, PA) [1]: non-DDI
Molecule: Sc1ncnc2nc[nH]c12 [6-mercaptopurine]
- transcriptional response of the indicator genes at a later time point [2]: stronger transcriptional response

- TGx-DDI classification by 2DC and/or PCA [1]: DDI agents; also recorded: positive
- TGx-DDI prediction by probability analysis (PA) [1]: non-DDI
Molecule: CS(=O)(=O)OCCCCOS(C)(=O)=O [busulfan]
- GADD45A induction relative to vehicle-treated control cells ([2]; TK6 cells, 4 h treatment, selected concentration): at least 2 fold
- induction of stress genes at higher concentrations ([2]; concentrations above the selected one): did not cause greater induction
- TGx-DDI classification by nCounter [3]: consistency among three classification methods

- TGx-DDI classification, overall call (DDI if positive in any of 2DC, PCA, PA) [1]: non-DDI
Molecule: Nc1ncn([C@@H]2O[C@H](CO)[C@@H](O)[C@H]2O)c(=O)n1 [5-azacytidine]
- transcriptional response of the indicator genes at a later time point [2]: stronger transcriptional response

- TGx-DDI classification by 2DC and/or PCA [1]: positive
- TGx-DDI prediction by probability analysis (PA) [1]: non-DDI
Molecule: CC/C(=C(/CC)c1ccc(O)cc1)c1ccc(O)cc1 [diethylstilbestrol]
- TGx-DDI classification, overall call (DDI if positive in any of 2DC, PCA, PA) [1]: genotoxic calls

- TGx-DDI classification, overall call (DDI if positive in any of 2DC, PCA, PA) [1]: DDI
Molecule: O=c1[nH]cc(F)c(=O)[nH]1 [5-FU]

Molecule: CCCN(CCc1cccs1)[C@H]1CCc2c(O)cccc2C1 [rotigotin]
- induction of indicator genes ATF3, CDKN1A, GADD45A ([2]; TK6 cells, 4 h treatment, selected or tested concentrations): did not induce any of the indicator genes

Molecule: COS(C)(=O)=O [MMS]
- clustering by 2DC using the TGx-DDI biomarker ([1]; reproducibility check with training-set agents, selected concentration): clustered with the genotoxic agents

Molecule: bleomycin
- decline (reduction) in cell viability at 24 hr (TK6 cells): 80%

- TGx-DDI classification by 2DC and/or PCA [1]: DDI agents; also recorded: positive
- TGx-DDI prediction by probability analysis (PA) [1]: non-DDI
Molecule: Oc1ccc(O)cc1 [hydroquinone]
- TGx-DDI classification by nCounter [3]: consistency among three classification methods

Molecule: Cc1nc(Nc2ncc(C(=O)Nc3c(C)cccc3Cl)s2)cc(N2CCN(CCO)CC2)n1 [dasatanib]
- TGx-DDI classification, overall call (DDI if positive in any of 2DC, PCA, PA) [1]: genotoxic calls

- TGx-DDI classification, overall call (DDI if positive in any of 2DC, PCA, PA) [1]: DDI
Molecule: Nc1nc2[nH]cnc2c(=S)[nH]1 [6-TG]
